Columns and labels:
[1] = Solubility of TRI 50c monosodium salt at different pH values; type: physicochemical
Procedure: It may be desirable to make aqueous solutions of boronic acid drugs for administering them. […] However, a solution with a pH of 9.5 may be unacceptable or undesirable. Accordingly, a pharmaceutically acceptable organic acid may be included in the particulate formulation in an amount selected to reduce the pH to a value at which the solution is more acceptable but at which a solution of drinkable quantity (e.g. about 50 ml to about 150 ml) may be formed by reconstituting the particulate formulation. As the organic acid may be mentioned citric acid, tartaric acid or malic acid, for example. In many instances, citric acid is chosen.
In a first series of experiments, this amount of the salt was dissolved in 50 ml water to form a solution of approximately pH 9.5. Dilute aqueous HCl was added to determine how much the pH could be reduced before precipitation occurred.
In a second series of experiments, the same amount of the salt was dissolved in 150 ml water, and citric acid was added. […] Since acid solutions tend to be more palatable than alkaline ones, and citric acid is a common flavouring agent, this behaviour of the salt is highly beneficial. […] In general, it is contemplated that the boronate will be formulated to form a reconstituted solution having a pH of from 4 to 8, e.g. 4 to 7, optionally 5 to 6.

[2] = Stability under conditions of HPLC purity determination; type: physicochemical; conditions: sample preparation for HPLC
Plasmin = Plasmin (Homo sapiens, UniProt P00747); test: Plasmin inhibition, chromogenic substrate (Method B); type: biochemical
Plasmin, sequence (P00747 581-810 limits assumed, species assumed): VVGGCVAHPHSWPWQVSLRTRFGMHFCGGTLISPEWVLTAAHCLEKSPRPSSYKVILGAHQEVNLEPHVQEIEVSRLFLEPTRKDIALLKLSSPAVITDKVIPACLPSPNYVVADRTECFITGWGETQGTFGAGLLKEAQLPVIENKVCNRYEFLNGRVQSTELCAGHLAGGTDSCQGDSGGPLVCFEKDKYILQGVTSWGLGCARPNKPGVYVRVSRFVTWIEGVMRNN
Plasmin, sequence (P00747 97-580 partner limits assumed, species assumed): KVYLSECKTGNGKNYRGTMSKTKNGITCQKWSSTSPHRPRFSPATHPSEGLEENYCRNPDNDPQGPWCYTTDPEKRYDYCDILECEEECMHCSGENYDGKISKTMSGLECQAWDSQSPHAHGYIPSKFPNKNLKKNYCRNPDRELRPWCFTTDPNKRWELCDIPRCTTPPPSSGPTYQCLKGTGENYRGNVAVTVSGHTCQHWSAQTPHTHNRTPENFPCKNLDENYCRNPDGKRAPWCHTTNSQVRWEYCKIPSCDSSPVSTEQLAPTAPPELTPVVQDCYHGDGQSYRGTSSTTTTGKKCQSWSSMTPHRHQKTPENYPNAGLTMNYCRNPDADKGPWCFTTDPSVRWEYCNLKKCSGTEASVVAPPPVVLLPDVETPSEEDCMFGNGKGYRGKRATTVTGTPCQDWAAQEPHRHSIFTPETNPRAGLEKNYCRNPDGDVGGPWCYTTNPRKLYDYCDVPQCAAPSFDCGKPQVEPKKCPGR
Procedure: 50 μl Plasmin (75 ng/ml in assay buffer) and 20 μl vehicle or compound solution were added to 110 μl assay buffer (100 mM Na orthophosphate (80% Na2HPO4 and 20% NaH2PO4), 200 mM NaCl, 0.5% PEG 6000, 0.02% Na azide, pH 7.5) and incubated for 5 minutes at 37° C.

thrombin = thrombin (Homo sapiens, UniProt P00734); test: Thrombin inhibition, chromogenic substrate (Method A); type: biochemical
Procedure: 50 μl thrombin (33.3 ng/ml in assay buffer) and 20 μl vehicle or compound solution were added to 110 μl assay buffer (100 mM Na orthophosphate (80% Na2HPO4 and 20% NaH2PO4), 200 mM NaCl, 0.5% PEG 6000, 0.02% Na azide, pH 7.5) and incubated for 5 minutes at 37° C.

Trypsin [3] = test: Trypsin inhibition, chromogenic substrate (Method C); type: biochemical; conditions: Trypsin versus thrombin
Procedure: (§1) 50 μl Trypsin (20 ng/ml in assay buffer) and 20 μl vehicle or compound solution were added to 110 μl assay buffer (100 mM Na orthophosphate (80% Na2HPO4 and 20% NaH2PO4), 200 mM NaCl, 0.5% PEG 6000, 0.02% Na azide, pH 7.5) and incubated for 5 minutes at 37° C.

Trypsin [4] = tested on: T1, Trypsin; test: as above; type: biochemical; conditions: Trypsin
T1 construct: IC50; other: Trypsin; Ki
Procedure: as §1

SMILES: COCCC[C@H](NC(=O)[C@@H]1CCCN1C(=O)[C@@H](Cc1ccccc1)NC(=O)OCc1ccccc1)B(O)O.[Na+] [TRI 50c monosodium salt, Cbz-(R)-Phe-(S)-Pro-(R)-Mpg-B(OH)2 monosodium salt]
- concentration of boronate salt solution that can be formed ([1]; aqueous solution at a pH of about 9.5): about 600 mg/ml
- pH below which the salt tended to precipitate ([1]; salt equivalent to 600 mg TRI 50c in 50 ml water, dilute aqueous HCl added): below 9
- pH to which solution could be reduced before precipitation occurred ([1]; salt equivalent to 600 mg TRI 50c in 150 ml water, citric acid added): 3.7-3.8

SMILES: COCCCC(NC(=O)C1CCCN1C(=O)C(Cc1ccccc1)NC(=O)OCc1ccccc1)B1OCCNCCO1 (stereo not drawn) [TRI 50d]
- stability under HPLC purity determination conditions [2]: not stable

SMILES: COCCC[C@H](NC(=O)[C@@H]1CCCN1C(=O)[C@@H](Cc1ccc(F)cc1)NC(=O)OCc1ccccc1)B(O)O [TRI 50f, Cbz-4-F-Phe-Pro-boroMpg-OH]
- IC50 (Plasmin; Plasmin): > 100 µM
- Ki (Plasmin; Plasmin): > 100 µM
- Selectivity (Plasmin; Plasmin versus thrombin): >1000
- IC50 (thrombin): < 0.1 µM
- Ki (thrombin): < 0.075 µM
- Selectivity (Trypsin [3]): >100
- IC50 (Trypsin [4]): > 10 µM
- Ki (Trypsin [4]): > 5 µM
